Results reported in US4282244A, “Optical isomers of 4-amino-N-(1-cyclohexyl-3-pyrrolidinyl)-N-methylbenzamide” (A. H. Robins Company, Inc., priority 1980, dated 1981).
Structures can show the parent of a compound that is named as a salt.

How the values were obtained:
mouse = assay: acute toxicity (LD50), mouse; format: in vivo; details: fumarate salt, expressed as free base
Description: (§1) The acute toxicities of the ±-racemate, the (+)-isomer and the (-)-isomer were conducted with the fumarate salts and probit analysis (Finney, D. J., Statistical Methods in Biological Assay, Hafner Pub. Co., N.Y., 2nd. Ed., 1964) was employed for the statistical treatment of the mortality data.

rat = assay: acute toxicity (LD50), rat; format: in vivo; details: fumarate salt, expressed as free base
Description: as §1

[1] = cataleptic effects (Tedeschi et al.); format: in vivo, rat; details: in vivo, rat, fumarate salt, expressed as free base
Excerpt: The procedure used for determing cataleptic effects of the fumarate salts was based on that of Tedeschi et al., Arch. Int. Pharmacodyn.

[2] = system: Chlorpromazine-Induced Catalepsy; assay: Effects on Chlorpromazine-Induced Catalepsy; format: in vivo, rat; details: then (+)-isomer 25 mg/kg IP after one hour
Description: (§2) (+)-4-Amino-N-(1-cyclohexyl-3-pyrrolidinyl)-N-methylbenzamide is useful in reducing the cataleptic side effects of known therapeutically effective drugs such as chlorpromazine [2-chloro-10-(3-dimethylaminopropyl)phenothiazine] and metoclopramide (N-diethylaminoethyl 2-methoxy-4-amino-5-chlorophenylcarboxamide). The effectiveness is shown in Tables IV and V. In each test the rat was administered a 100% effective cataleptic dose of the test drug followed one hour later by an effective dose of (+)-4-amino-N-(1-cyclohexyl-3-pyrrolidinyl)-N-methylbenzamide.

[3] = system: Metoclopramide-Induced Catalepsy; assay: Effects on Metoclopramide-Induced Catalepsy; format: in vivo, rat; details: Metoclopramide 40 mg/kg IP
Description: as §2

## CN(C(=O)c1ccc(N)cc1)C1CCN(C2CCCCC2)C1 (single isomer, unassigned; (+)) [(+)-isomer, (+)-4-Amino-N-(1-cyclohexyl-3-pyrrolidinyl)-N-methyl benzamide Fumarate]
mouse; I.P.
  LD50 (95% Confidence Limits): 126 (115-139) mg/kg
mouse; P.O.
  LD50 (95% Confidence Limits): 267 (233-313) mg/kg
rat; I.P.
  LD50 (95% Confidence Limits): 147 (134-222) mg/kg
rat; P.O.
  LD50 (95% Confidence Limits): 499 (322-593) mg/kg
[1]; IP
  NOAEL: 100 mg/kg
[1]; PO
  NOAEL: 200 mg/kg
[2]; Chlorpromazine 4 mg/kg IP, 0.5 h after initial treatment
  Percent of Rats Cataleptic: 100%
[2]; Chlorpromazine 4 mg/kg IP, 1.0 h after initial treatment
  Percent of Rats Cataleptic: 100%
[2]; Chlorpromazine 4 mg/kg IP, 1.5 h after initial treatment
  Percent of Rats Cataleptic: 50%
[2]; Chlorpromazine 4 mg/kg IP, 2.0 h after initial treatment
  Percent of Rats Cataleptic: 33%
[2]; Chlorpromazine 4 mg/kg IP, 3.0 h after initial treatment
  Percent of Rats Cataleptic: 33%
[2]; Chlorpromazine 4 mg/kg IP, 4.0 h after initial treatment
  Percent of Rats Cataleptic: 50%
[2]; Chlorpromazine 4 mg/kg IP, 5.0 h after initial treatment
  Percent of Rats Cataleptic: 100%
[2]; Chlorpromazine 4 mg/kg IP, 6.0 h after initial treatment
  Percent of Rats Cataleptic: 67%
[2]; saline 10 ml/kg IP, 0.5 h after initial treatment
  Percent of Rats Cataleptic: 0%
[2]; saline 10 ml/kg IP, 1.0 h after initial treatment
  Percent of Rats Cataleptic: 0%
[2]; saline 10 ml/kg IP, 1.5 h after initial treatment
  Percent of Rats Cataleptic: 0%
[2]; saline 10 ml/kg IP, 2.0 h after initial treatment
  Percent of Rats Cataleptic: 0%
[2]; saline 10 ml/kg IP, 3.0 h after initial treatment
  Percent of Rats Cataleptic: 0%
[2]; saline 10 ml/kg IP, 4.0 h after initial treatment
  Percent of Rats Cataleptic: 17%
[2]; saline 10 ml/kg IP, 5.0 h after initial treatment
  Percent of Rats Cataleptic: 17%
[2]; saline 10 ml/kg IP, 6.0 h after initial treatment
  Percent of Rats Cataleptic: 0%
[3]; then (+)-isomer 12.5 mg/kg IP after one hour, 0.5 h after initial treatment
  Percent of Rats Cataleptic: 100%
[3]; then (+)-isomer 12.5 mg/kg IP after one hour, 1.0 h after initial treatment
  Percent of Rats Cataleptic: 100%
[3]; then (+)-isomer 12.5 mg/kg IP after one hour, 1.5 h after initial treatment
  Percent of Rats Cataleptic: 100%
[3]; then (+)-isomer 12.5 mg/kg IP after one hour, 2.0 h after initial treatment
  Percent of Rats Cataleptic: 88%
[3]; then (+)-isomer 12.5 mg/kg IP after one hour, 3.0 h after initial treatment
  Percent of Rats Cataleptic: 88%
[3]; then (+)-isomer 12.5 mg/kg IP after one hour, 4.0 h after initial treatment
  Percent of Rats Cataleptic: 100%
[3]; then (+)-isomer 12.5 mg/kg IP after one hour, 5.0 h after initial treatment
  Percent of Rats Cataleptic: 100%
[3]; then (+)-isomer 12.5 mg/kg IP after one hour, 6.0 h after initial treatment
  Percent of Rats Cataleptic: 100%
[3]; then (+)-isomer 12.5 mg/kg IP after one hour, 7.0 h after initial treatment
  Percent of Rats Cataleptic: 100%
[3]; then (+)-isomer 25 mg/kg IP after one hour, 0.5 h after initial treatment
  Percent of Rats Cataleptic: 100%
[3]; then (+)-isomer 25 mg/kg IP after one hour, 1.0 h after initial treatment
  Percent of Rats Cataleptic: 100%
[3]; then (+)-isomer 25 mg/kg IP after one hour, 1.5 h after initial treatment
  Percent of Rats Cataleptic: 100%
[3]; then (+)-isomer 25 mg/kg IP after one hour, 2.0 h after initial treatment
  Percent of Rats Cataleptic: 75%
[3]; then (+)-isomer 25 mg/kg IP after one hour, 3.0 h after initial treatment
  Percent of Rats Cataleptic: 38%
[3]; then (+)-isomer 25 mg/kg IP after one hour, 4.0 h after initial treatment
  Percent of Rats Cataleptic: 75%
[3]; then (+)-isomer 25 mg/kg IP after one hour, 5.0 h after initial treatment
  Percent of Rats Cataleptic: 88%
[3]; then (+)-isomer 25 mg/kg IP after one hour, 6.0 h after initial treatment
  Percent of Rats Cataleptic: 88%
[3]; then (+)-isomer 40 mg/kg IP after one hour, 0.5 h after initial treatment
  Percent of Rats Cataleptic: 88%
[3]; then (+)-isomer 40 mg/kg IP after one hour, 1.0 h after initial treatment
  Percent of Rats Cataleptic: 88%
[3]; then (+)-isomer 40 mg/kg IP after one hour, 1.5 h after initial treatment
  Percent of Rats Cataleptic: 25%
[3]; then (+)-isomer 40 mg/kg IP after one hour, 2.0 h after initial treatment
  Percent of Rats Cataleptic: 13%
[3]; then (+)-isomer 40 mg/kg IP after one hour, 3.0 h after initial treatment
  Percent of Rats Cataleptic: 38%
[3]; then (+)-isomer 40 mg/kg IP after one hour, 4.0 h after initial treatment
  Percent of Rats Cataleptic: 38%
[3]; then (+)-isomer 40 mg/kg IP after one hour, 5.0 h after initial treatment
  Percent of Rats Cataleptic: 88%
[3]; then (+)-isomer 40 mg/kg IP after one hour, 6.0 h after initial treatment
  Percent of Rats Cataleptic: 88%
[3]; then (+)-isomer 40 mg/kg IP after one hour, 7.0 h after initial treatment
  Percent of Rats Cataleptic: 88%
[3]; then (+)-isomer 50 mg/kg IP after one hour, 0.5 h after initial treatment
  Percent of Rats Cataleptic: 100%
[3]; then (+)-isomer 50 mg/kg IP after one hour, 1.0 h after initial treatment
  Percent of Rats Cataleptic: 100%
[3]; then (+)-isomer 50 mg/kg IP after one hour, 1.5 h after initial treatment
  Percent of Rats Cataleptic: 13%
[3]; then (+)-isomer 50 mg/kg IP after one hour, 2.0 h after initial treatment
  Percent of Rats Cataleptic: 13%
[3]; then (+)-isomer 50 mg/kg IP after one hour, 3.0 h after initial treatment
  Percent of Rats Cataleptic: 25%
[3]; then (+)-isomer 50 mg/kg IP after one hour, 4.0 h after initial treatment
  Percent of Rats Cataleptic: 25%
[3]; then (+)-isomer 50 mg/kg IP after one hour, 5.0 h after initial treatment
  Percent of Rats Cataleptic: 75%
[3]; then (+)-isomer 50 mg/kg IP after one hour, 6.0 h after initial treatment
  Percent of Rats Cataleptic: 88%
[3]; then (+)-isomer 50 mg/kg IP after one hour, 7.0 h after initial treatment
  Percent of Rats Cataleptic: 75%
